For assay [1], the target named is STE20-like serine/threonine-protein kinase (Homo sapiens, UniProt Q9H2G2). In words: Selectivity interaction (LanthaScreen Eu Kinase Binding Assay) EUB0001632a SLK. The conditions noted are these: at 10 µM. For orientation: TR-FRET usually uses a lanthanide donor and a delayed reading to cut background.
Assay [2] concerns the target Serine/threonine-protein kinase 38-like (Homo sapiens) (UniProt Q9Y2H1). In words: Selectivity interaction (KinomeScan (DiscoverX)) EUB0000666a STK38L. To be noted: at 10 µM.
In assay [3] the target is Protein arginine N-methyltransferase 3 (Homo sapiens, UniProt O60678). In words: Selectivity interaction (Methyltransferase screen (Scintillation proximity assays)) EUB0000255b PRMT3.
Chain of Protein arginine N-methyltransferase 3 (O60678 2-531 limits assumed): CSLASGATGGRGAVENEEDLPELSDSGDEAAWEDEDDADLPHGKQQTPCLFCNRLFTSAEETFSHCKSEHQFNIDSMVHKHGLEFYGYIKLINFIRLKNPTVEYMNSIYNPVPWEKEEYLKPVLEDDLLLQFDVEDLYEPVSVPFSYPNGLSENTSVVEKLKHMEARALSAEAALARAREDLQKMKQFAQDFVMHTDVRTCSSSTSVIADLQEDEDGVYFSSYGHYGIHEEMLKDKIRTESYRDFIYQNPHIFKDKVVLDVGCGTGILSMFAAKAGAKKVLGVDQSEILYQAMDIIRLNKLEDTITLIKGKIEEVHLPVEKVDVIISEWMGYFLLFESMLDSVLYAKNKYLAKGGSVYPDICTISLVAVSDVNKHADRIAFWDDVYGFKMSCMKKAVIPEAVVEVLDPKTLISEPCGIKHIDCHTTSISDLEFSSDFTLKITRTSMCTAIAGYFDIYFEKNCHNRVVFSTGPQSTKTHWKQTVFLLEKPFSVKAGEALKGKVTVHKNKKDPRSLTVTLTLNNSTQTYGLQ
The target in assay [4] is Microtubule-associated serine/threonine-protein kinase 1 (Homo sapiens) (UniProt Q9Y2H9). In words: Selectivity interaction (KinomeScan (DiscoverX)) EUB0000655a MAST1. The conditions noted are these: at 10 µM.
Chain of Microtubule-associated serine/threonine-protein kinase 1 (Homo sapiens) (Q9Y2H9 whole entry, looked up): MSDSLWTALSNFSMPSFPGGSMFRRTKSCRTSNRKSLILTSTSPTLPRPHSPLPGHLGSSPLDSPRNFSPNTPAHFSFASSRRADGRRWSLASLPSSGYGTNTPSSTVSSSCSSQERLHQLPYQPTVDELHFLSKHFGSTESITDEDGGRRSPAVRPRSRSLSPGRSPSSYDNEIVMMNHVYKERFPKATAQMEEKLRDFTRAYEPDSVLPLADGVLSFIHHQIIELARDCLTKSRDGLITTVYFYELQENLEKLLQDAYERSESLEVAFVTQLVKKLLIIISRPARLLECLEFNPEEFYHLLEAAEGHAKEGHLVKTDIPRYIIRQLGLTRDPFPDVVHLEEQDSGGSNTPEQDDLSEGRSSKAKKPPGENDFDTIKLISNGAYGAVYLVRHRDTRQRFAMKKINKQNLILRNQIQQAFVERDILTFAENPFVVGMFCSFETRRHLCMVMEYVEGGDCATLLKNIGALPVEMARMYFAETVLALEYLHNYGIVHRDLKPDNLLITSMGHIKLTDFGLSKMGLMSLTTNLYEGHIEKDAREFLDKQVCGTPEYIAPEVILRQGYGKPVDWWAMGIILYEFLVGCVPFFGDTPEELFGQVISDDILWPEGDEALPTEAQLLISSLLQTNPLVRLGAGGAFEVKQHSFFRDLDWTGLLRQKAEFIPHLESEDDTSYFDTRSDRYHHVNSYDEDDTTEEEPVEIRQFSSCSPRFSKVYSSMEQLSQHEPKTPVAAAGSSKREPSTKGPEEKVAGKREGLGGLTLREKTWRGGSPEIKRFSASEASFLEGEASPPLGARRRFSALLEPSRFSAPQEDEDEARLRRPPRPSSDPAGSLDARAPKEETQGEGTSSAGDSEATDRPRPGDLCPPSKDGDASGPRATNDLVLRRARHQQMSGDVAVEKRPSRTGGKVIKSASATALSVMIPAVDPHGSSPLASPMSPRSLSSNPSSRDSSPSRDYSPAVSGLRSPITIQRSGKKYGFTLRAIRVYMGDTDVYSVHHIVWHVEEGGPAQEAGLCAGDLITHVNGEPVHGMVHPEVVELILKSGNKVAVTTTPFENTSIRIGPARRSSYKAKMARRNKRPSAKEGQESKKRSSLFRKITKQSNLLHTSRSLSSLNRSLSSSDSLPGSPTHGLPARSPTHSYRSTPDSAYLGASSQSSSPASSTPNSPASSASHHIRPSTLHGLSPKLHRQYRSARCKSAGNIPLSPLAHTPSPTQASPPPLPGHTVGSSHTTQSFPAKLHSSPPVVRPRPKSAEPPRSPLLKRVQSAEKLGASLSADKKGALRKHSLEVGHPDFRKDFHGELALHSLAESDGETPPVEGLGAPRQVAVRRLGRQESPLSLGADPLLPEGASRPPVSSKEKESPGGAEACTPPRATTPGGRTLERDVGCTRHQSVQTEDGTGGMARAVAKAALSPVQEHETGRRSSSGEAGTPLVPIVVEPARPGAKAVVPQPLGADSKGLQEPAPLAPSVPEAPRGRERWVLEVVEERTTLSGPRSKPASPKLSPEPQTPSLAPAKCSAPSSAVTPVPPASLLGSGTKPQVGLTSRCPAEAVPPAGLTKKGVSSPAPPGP
Assay [5] concerns the target Mitogen-activated protein kinase kinase kinase 9 (Homo sapiens) (UniProt P80192). In words: Selectivity interaction (KinomeScan (DiscoverX)) EUB0000655a MAP3K9. The conditions noted are these: at 10 µM.
Assay [6] concerns the target Vascular endothelial growth factor receptor 2 (Homo sapiens, UniProt P35968). In words: Selectivity interaction (KinomeScan (DiscoverX)) EUB0001619a KDR. To be noted: at 1 µM.
The target in assay [7] is Tyrosine-protein kinase ABL1 (Homo sapiens, UniProt P00519). In words: Selectivity interaction (ActivX KiNativ screen (kinase selectivity in THP-1 cell lysates)) EUB0000639a ABL1. The format is subcellular. The conditions noted are these: lysate.
Chain of Tyrosine-protein kinase ABL1 (P00519 whole entry): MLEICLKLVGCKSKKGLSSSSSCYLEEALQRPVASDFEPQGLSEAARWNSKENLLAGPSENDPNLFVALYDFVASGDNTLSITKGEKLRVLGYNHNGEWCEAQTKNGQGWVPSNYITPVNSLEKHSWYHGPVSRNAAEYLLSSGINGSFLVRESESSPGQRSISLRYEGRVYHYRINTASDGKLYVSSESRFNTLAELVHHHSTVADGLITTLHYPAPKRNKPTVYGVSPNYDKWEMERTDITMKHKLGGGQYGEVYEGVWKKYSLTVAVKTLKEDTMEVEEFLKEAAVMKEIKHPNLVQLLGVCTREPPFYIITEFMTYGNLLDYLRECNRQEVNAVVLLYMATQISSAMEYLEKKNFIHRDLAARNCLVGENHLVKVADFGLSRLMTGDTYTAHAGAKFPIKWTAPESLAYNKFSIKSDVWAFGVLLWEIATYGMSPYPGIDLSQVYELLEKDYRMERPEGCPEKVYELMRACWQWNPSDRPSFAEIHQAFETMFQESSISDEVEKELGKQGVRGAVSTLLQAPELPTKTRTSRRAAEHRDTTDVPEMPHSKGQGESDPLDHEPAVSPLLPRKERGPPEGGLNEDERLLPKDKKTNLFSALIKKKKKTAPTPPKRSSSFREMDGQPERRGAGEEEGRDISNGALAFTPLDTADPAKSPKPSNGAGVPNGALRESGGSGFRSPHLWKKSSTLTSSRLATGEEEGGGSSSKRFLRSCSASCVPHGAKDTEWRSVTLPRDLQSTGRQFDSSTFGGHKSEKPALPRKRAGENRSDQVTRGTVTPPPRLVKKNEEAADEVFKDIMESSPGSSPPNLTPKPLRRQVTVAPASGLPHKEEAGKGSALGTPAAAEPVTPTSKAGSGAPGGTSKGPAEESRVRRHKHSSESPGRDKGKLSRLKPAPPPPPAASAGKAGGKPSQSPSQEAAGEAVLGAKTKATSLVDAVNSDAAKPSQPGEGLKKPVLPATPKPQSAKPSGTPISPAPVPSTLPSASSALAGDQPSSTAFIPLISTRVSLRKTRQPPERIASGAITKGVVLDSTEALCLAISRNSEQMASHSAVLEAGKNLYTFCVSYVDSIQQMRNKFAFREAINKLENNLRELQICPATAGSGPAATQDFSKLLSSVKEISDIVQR
In assay [8] the target is T1, Cytoplasmic tyrosine-protein kinase BMX (Homo sapiens) (UniProt P51813).
T1 sequence (whole entry): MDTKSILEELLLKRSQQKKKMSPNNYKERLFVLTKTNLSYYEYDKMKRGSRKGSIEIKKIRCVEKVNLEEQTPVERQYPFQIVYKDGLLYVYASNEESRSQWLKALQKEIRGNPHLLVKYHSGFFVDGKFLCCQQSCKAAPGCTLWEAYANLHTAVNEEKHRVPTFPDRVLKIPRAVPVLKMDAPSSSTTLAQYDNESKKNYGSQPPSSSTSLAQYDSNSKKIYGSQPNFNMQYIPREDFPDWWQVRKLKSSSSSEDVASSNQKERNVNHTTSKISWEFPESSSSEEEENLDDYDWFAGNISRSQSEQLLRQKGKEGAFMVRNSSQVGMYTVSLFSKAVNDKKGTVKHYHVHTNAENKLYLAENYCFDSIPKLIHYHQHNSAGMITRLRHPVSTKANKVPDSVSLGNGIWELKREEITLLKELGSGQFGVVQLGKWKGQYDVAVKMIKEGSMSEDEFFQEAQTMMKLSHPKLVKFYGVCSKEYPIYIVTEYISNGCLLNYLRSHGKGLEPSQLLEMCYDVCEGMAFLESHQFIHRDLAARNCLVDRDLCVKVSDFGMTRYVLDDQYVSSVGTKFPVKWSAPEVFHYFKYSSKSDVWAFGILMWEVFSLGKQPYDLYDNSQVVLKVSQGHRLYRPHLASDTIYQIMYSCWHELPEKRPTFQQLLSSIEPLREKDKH
The conditions noted are these: at 10 µM.

For assay [9], the target named is Ephrin type-A receptor 5 (Homo sapiens) (UniProt P54756). To be noted: at 10 µM.
Assay [10] has as its target Insulin-like growth factor 1 receptor (Homo sapiens, UniProt P08069). To be noted: at 10 µM.
The target of assay [11] is Serine/threonine-protein kinase Nek6 (Homo sapiens) (UniProt Q9HC98). In words: Selectivity interaction (KinomeScan (DiscoverX)) EUB0000045b NEK6.
Chain of Serine/threonine-protein kinase Nek6 (Homo sapiens) (Q9HC98 whole entry): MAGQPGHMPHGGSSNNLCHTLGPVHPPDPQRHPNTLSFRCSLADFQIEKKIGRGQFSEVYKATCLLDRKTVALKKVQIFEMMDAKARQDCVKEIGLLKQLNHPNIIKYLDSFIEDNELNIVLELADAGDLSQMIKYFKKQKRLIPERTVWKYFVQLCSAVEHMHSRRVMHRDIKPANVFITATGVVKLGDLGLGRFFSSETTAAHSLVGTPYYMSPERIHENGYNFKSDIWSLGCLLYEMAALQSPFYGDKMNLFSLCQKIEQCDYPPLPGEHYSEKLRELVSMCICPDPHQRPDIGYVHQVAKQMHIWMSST
Assay [12] addresses Tyrosine-protein kinase Fes/Fps (Homo sapiens) (UniProt P07332). In words: Selectivity interaction (KinomeScan (DiscoverX)) EUB0000045b FES.
The target in assay [13] is T2, Phosphatidylinositol 4,5-bisphosphate 3-kinase catalytic subunit delta isoform (Homo sapiens) (UniProt O00329).
T2 sequence (whole entry): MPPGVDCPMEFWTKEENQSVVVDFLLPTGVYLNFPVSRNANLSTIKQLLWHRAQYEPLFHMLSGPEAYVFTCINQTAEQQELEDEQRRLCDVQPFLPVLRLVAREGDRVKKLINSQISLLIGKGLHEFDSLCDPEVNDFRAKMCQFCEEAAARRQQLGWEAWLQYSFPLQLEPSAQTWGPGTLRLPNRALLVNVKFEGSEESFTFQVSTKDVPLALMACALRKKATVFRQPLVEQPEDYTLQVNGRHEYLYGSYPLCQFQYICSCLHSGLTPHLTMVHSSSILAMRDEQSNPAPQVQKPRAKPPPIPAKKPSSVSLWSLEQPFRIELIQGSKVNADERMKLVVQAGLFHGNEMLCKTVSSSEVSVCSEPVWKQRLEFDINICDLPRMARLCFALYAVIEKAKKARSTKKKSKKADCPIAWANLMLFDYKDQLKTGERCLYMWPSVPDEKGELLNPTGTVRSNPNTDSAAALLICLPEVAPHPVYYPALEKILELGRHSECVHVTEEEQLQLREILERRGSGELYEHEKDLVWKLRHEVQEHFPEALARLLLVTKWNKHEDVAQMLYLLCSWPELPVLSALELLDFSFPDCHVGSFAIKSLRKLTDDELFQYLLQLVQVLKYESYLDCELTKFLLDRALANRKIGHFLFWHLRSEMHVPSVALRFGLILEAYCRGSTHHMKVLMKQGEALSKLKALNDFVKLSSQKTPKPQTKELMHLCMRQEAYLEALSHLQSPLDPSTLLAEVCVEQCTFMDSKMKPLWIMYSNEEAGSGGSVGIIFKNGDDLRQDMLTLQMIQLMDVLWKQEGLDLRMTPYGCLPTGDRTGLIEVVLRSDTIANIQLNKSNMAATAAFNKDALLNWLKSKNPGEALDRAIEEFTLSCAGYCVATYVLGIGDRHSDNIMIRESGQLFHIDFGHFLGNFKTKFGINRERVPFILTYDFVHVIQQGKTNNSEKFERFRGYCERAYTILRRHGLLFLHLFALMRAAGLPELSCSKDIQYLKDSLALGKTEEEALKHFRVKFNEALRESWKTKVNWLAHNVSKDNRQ
In words: Selectivity interaction (KinomeScan (DiscoverX)) EUB0000618a PIK3CD. The conditions noted are these: at 10 µM.

A value given as a limit tells only on which side of the number the result lay.

Chain of Tyrosine-protein kinase Fes/Fps (Homo sapiens) (P07332 whole entry, canonical isoform): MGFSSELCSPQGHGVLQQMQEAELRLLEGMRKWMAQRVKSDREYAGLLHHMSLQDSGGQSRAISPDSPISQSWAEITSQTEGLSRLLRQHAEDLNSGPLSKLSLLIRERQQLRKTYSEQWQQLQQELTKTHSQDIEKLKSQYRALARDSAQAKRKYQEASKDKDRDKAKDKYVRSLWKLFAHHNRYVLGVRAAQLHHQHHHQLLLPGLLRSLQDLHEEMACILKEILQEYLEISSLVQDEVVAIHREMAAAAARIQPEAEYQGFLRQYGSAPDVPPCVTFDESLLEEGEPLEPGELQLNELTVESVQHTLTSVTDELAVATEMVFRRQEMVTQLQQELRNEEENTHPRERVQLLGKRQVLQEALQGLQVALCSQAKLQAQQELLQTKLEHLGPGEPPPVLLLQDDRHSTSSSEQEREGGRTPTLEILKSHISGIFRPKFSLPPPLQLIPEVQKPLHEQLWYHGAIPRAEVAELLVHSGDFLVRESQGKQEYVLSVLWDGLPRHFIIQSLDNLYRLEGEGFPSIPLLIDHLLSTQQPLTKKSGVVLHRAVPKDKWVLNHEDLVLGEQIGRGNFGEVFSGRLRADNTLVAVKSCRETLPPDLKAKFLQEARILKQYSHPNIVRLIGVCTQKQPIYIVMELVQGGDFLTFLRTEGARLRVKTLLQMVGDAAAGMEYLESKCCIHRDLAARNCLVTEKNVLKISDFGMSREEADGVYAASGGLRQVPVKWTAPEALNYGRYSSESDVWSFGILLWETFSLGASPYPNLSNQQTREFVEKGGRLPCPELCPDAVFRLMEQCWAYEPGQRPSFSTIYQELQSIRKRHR
Chain of Serine/threonine-protein kinase 38-like (Homo sapiens) (Q9Y2H1 2-464 limits assumed): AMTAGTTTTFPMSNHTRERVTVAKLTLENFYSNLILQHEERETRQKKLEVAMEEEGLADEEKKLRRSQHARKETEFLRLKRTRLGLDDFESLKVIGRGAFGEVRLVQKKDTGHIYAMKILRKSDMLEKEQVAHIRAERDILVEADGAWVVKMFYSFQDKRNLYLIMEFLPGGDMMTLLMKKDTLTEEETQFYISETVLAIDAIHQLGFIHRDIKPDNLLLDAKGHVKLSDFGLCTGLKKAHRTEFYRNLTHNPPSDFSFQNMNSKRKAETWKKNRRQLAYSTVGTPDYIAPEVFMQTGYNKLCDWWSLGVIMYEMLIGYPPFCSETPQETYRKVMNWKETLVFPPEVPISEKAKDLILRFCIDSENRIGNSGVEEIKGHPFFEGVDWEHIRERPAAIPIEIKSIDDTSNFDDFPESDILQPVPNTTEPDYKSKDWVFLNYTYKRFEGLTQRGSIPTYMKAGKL

On to `Cn1cc(-n2cnc3c(NCc4nc5cc(Cl)c(Cl)cc5[nH]4)nc(N4CCOCC4)nc32)cn1`, for which the % of inhibition in [1] is -1.88%.
In turn, `O=C(NOC[C@H](O)CO)c1ccc(F)c(F)c1Nc1ccc(I)cc1F` had a % of control in assay [2] of 100%.
With `COCCN1CCC(c2cc(CN(C)C(=O)c3cccc(Oc4ccccc4)c3)ccn2)CC1`, the % activity is more than 95% in [3] (at 1 µM) and more than 90% in assay [3] (at 10 µM).
Regarding `CN(C)CCOc1ccc(-c2nc(-c3ccncc3)c(-c3ccc4c(c3)CC/C4=N\O)[nH]2)cc1`, the % of control in assay [4] and in assay [5] was 100% in each case.
Turning to `N#Cc1cccc(-c2c[nH]c3ncnc(N4CCOCC4)c23)c1`, the % of control in assay [6] was 62%.
On to `CC[C@@H]1[C@H](F)C(=O)N[C@@H]1COc1nccc2cc(C(N)=O)c(OC)cc12` [ZIMLOVISERTIB], for which the % of inhibition in assay [7] (at 0.01 µM) was 12.8%; in assay [7] (at 0.04 µM), -16%; in assay [7] (at 0.2 µM), -25.4%; in [7] (at 1 µM), -5.3%; in assay [7] (at 5 µM), -19.6%.
For `CCN(CC)CCCCNc1ncc2cc(-c3cc(OC)cc(OC)c3)c(NC(=O)NC(C)(C)C)nc2n1`, the % of control in assay [8], in assay [9] and in assay [10] was 100% in each case.
With `C=CC(=O)Nc1cc(-n2c(=O)ccc3cnc4ccc(-c5ccc(NS(C)(=O)=O)cc5)cc4c32)ccc1C`, the % of control in assay [11] (at 1 µM) was 100%; in assay [11] (at 10 µM), 74%; in [12] (at 1 µM), 92%; in assay [12] (at 10 µM), 100%.
On to `O[C@H]1CC[C@H](Nc2ncc3nc(Nc4c(F)cc(F)cc4F)n([C@H]4CCOC4)c3n2)CC1`, for which the % of control in assay [13] was 96%.

The values above are taken from ChEMBL document CHEMBL5465560, “Selectivity Literature for EUbOPEN Chemogenomic Library” (2024).
